Measured values taken from publication doi:10.1101/2025.03.26.645438v1 (bioRxiv, 2025).

Experiments:
[1] = system: diabetic db/db mouse model; test: Long-term glucose-lowering after multiple doses; assay type: in vivo; conditions: db/db mice, kidney injury marker after multiple administration 10 nmol/kg
Pharmacokinetics = assay type: in vivo, rat; conditions: SD male rats, single dose 0.05 mg/kg, plasma, LC-MS/MS, WinNonlin, mean n=3
[2] = system: diabetic db/db mouse model; test: Acute glucose-lowering after single dose in db/db mice; assay type: in vivo
[3] = system: diet-induced obese (DIO) mice; test: Weight loss in diet-induced obese; assay type: in vivo, mouse; conditions: 10 nmol/kg

## Semaglutide
[1]
  serum creatinine (Scr): significantly reduced
  urinary albumin levels: significantly reduced
Pharmacokinetics
  half-life (T1/2): 8.17 h
  mean residence time (MRT0-t), 0-[…]: 14.21 h
[2]; single dose 10 nmol/kg
  time up to which the decrease of non-fasting blood glucose persisted: 24 h
[2]; single dose 10 nmol/kg subcutaneous, mean±SD, n=6, SD
  lowest non-fasting blood glucose level: 15.57 ± 5.16 mmol/L
[2]; single dose 10 nmol/kg, non-fasting glucose 0-120 hours
  acute glucose-lowering effect compared with model group: comparable glucose-lowering effects
[3]; multiple administrations
  fat index: reduced
[3]; multiple administrations over 21 days, n=5
  body weight reduction: 21.54%
